Results published in PubChem BioAssay AID256 (DTP/NCI, 2004).
“And” between values parts separate entries of the source, which are not always exact repeats. Equal entries are not always repeated. Inconclusive results and toxic doses are left out. Rule for the calls: active = survival T/C of 150% or more; inactive = T/C below 125% in these data.

Test system: CD2F1 mice, L1210 leukemia ip, survival T/C
Assay: NCI In Vivo Anticancer Drug Screen. Data for tumor model L1210 Leukemia (intraperitoneal) in CD2F1 (CDF1) mice
Settings: higher = longer survival
Method in brief: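 Vehicle-treated tumor-bearing mice served as controls (C) for compound-treated mice (T). Reported figure is T divided by C.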

[1] = endpoint: mean survival time, dose: 25.0 mg/kg/injection, schedule: Q01DX009 (ip), vehicle: saline with Tween-80
[2] = endpoint: mean survival time, dose: 50.0 mg/kg/injection, schedule: Q01DX009 (ip), vehicle: saline with Tween-80
[3] = endpoint: mean survival time, dose: 100.0 mg/kg/injection, schedule: Q01DX009 (ip), vehicle: saline with Tween-80
[4] = endpoint: mean survival time, dose: 200.0 mg/kg/injection, schedule: Q01DX009 (ip), vehicle: saline with Tween-80
[5] = endpoint: mean survival time, dose: 400.0 mg/kg/injection, schedule: Q01DX009 (ip), vehicle: saline with Tween-80
[6] = endpoint: mean survival time, dose: 100.0 mg/kg/injection, schedule: Q04DX003 (ip), vehicle: saline
[7] = endpoint: mean survival time, dose: 100.0 mg/kg/injection, schedule: Q04DX003 (ip), vehicle: saline with Tween-80
[8] = endpoint: mean survival time, dose: 200.0 mg/kg/injection, schedule: Q04DX003 (ip), vehicle: saline with Tween-80
[9] = endpoint: mean survival time, dose: 400.0 mg/kg/injection, schedule: Q04DX003 (ip), vehicle: saline with Tween-80
[10] = endpoint: mean survival time, dose: 25.0 mg/kg/injection, schedule: Q04DX003 (ip), vehicle: saline
[11] = endpoint: mean survival time, dose: 50.0 mg/kg/injection, schedule: Q04DX003 (ip), vehicle: saline

Measured: T/C

Cc1ccc(S(=O)(=O)OC2C(O)OC3COC(c4ccccc4)OC3C2OS(=O)(=O)c2ccc(C)cc2)cc1 (stereo not drawn)
inactive: endpoint: mean survival time, dose: 100.0 mg/kg/injection, schedule: Q01DX001 (ip), vehicle: saline with Tween-80 94 % of control | endpoint: mean survival time, dose: 200.0 mg/kg/injection, schedule: Q01DX001 (ip), vehicle: saline with Tween-80 105 % of control | endpoint: mean survival time, dose: 400.0 mg/kg/injection, schedule: Q01DX001 (ip), vehicle: saline with Tween-80 94 % of control

O=C(N/N=C\c1cc(Br)cc(Br)c1O)N/N=C/c1cc(Br)cc(Br)c1O
inactive: [1] 117 % of control | [2] 104 % of control and 111 % of control | [3] 116 % of control and 122 % of control | [4] 118 % of control and 94 % of control | [5] 116 % of control and 88 % of control

O=[N+]([O-])c1ccc(N/N=C/c2cccc(CO)c2)c([N+](=O)[O-])c1
inactive: [6] 94 % of control | endpoint: mean survival time, dose: 200.0 mg/kg/injection, schedule: Q04DX003 (ip), vehicle: saline 88 % of control | endpoint: mean survival time, dose: 400.0 mg/kg/injection, schedule: Q04DX003 (ip), vehicle: saline 96 % of control

CC(=O)CC(=O)c1ccccc1.CC(=O)CC(=O)c1ccccc1.CC(=O)CC(=O)c1ccccc1.[Cr]
inactive: endpoint: median survival time, dose: 50.0 mg/kg/injection, schedule: Q04DX002 (ip), vehicle: saline with Tween-80 88 % of control | endpoint: median survival time, dose: 100.0 mg/kg/injection, schedule: Q04DX002 (ip), vehicle: saline with Tween-80 88 % of control | endpoint: median survival time, dose: 200.0 mg/kg/injection, schedule: Q04DX002 (ip), vehicle: saline with Tween-80 88 % of control | endpoint: median survival time, dose: 400.0 mg/kg/injection, schedule: Q04DX002 (ip), vehicle: saline with Tween-80 88 % of control

N/C(Cc1ccc(N)cc1)=N\O
inactive: [7] 110 % of control

CCc1ccccc1OS(=O)(=O)c1cccc([N+](=O)[O-])c1
inactive: [3] 96 % of control | [7] 99 % of control | [4] 98 % of control | [8] 100 % of control | [5] 98 % of control | [9] 99 % of control

CC(C)NS(=O)(=O)c1ccccc1
inactive: [7] 97 % of control | [8] 96 % of control | [9] 99 % of control

O=C(/C=C/c1ccccc1)N/N=C/c1ccccc1Cl
inactive: endpoint: mean survival time, dose: 50.0 mg/kg/injection, schedule: Q01DX009 (ip), vehicle: Klucel (hydroxypropylcellulose) (HPC) 105 % of control | endpoint: mean survival time, dose: 100.0 mg/kg/injection, schedule: Q01DX009 (ip), vehicle: Klucel (hydroxypropylcellulose) (HPC) 105 % of control | endpoint: mean survival time, dose: 200.0 mg/kg/injection, schedule: Q01DX009 (ip), vehicle: Klucel (hydroxypropylcellulose) (HPC) 105 % of control

CN(C)/C=N/N1C(=O)CSC1=S
inactive: [10] 107 % of control | [11] 103 % of control | [6] 101 % of control and 103 % of control

COc1ccccc1NC(=S)NCCO
inactive: [3] 97 % of control | [4] 103 % of control | [5] 98 % of control

Cc1cccc(Cl)c1NC(=O)C(C)N1CCCC1 (stereo not drawn)
inactive: endpoint: mean survival time, dose: 12.5 mg/kg/injection, schedule: Q04DX003 (ip), vehicle: saline 100 % of control | [10] 107 % of control | [11] 104 % of control

CC(=O)Nc1ccc(/C=N/NC(=O)CNC(=O)Nc2cccc([N+](=O)[O-])c2)cc1
inactive: endpoint: mean survival time, dose: 12.5 mg/kg/injection, schedule: Q01DX009 (ip), vehicle: saline with Tween-80 87 % of control | [1] 91 % of control | [2] 91 % of control | [3] 88 % of control

O=C(CCN1C(=O)c2ccccc2C1=O)c1ccc(O)cc1
inactive: [7] 93 % of control | [8] 98 % of control | [9] 92 % of control

OCC1OC(n2c(C(F)(F)F)nc3cc4ccccc4cc32)C(O)C1O (stereo not drawn)
inactive: endpoint: median survival time, dose: 22.5 mg/kg/injection, schedule: Q01DX005 (ip), vehicle: saline with Tween-80 103 % of control | endpoint: median survival time, dose: 45.0 mg/kg/injection, schedule: Q01DX005 (ip), vehicle: saline with Tween-80 103 % of control | endpoint: median survival time, dose: 90.0 mg/kg/injection, schedule: Q01DX005 (ip), vehicle: saline with Tween-80 93 % of control | endpoint: median survival time, dose: 180.0 mg/kg/injection, schedule: Q01DX005 (ip), vehicle: saline with Tween-80 98 % of control
